Usually Km stands for the concentration of substrate that gives half-maximal velocity.

Results on 15 compounds are retold here after paper PMC10666288, “Unveiling the Catalytic Mechanism of a Processive Metalloaminopeptidase” (Biochemistry, 2023).

What all share (assay type): biochemical
What all share (design): GG stays after cleavage) (N); made in house; host or cells: E. coli BL21(DE3)

In experiment [1] the target is T1, PaPepA (Pseudomonas aeruginosa, UniProt Q02RY8). Conditions: aa-pNA varied, 3 mM MnCl2, 100 nM PaPepA, pH 8.0, 25 °C. The procedure: (§1) A BMG Labtech POLARstar Omega plate reader was used for activity assays and kinetic studies involving amino acids conjugated to para-nitroaniline (pNA) (Sigma) or peptides as substrates. Assays were carried out at 25 °C in clear half-area 96-well plates (Greiner Bio-One). […] For kinetic assays investigating Leu-AMC as a substrate, a SpectraMax M2E was used. Reactions were carried out using black half-area 96-well plates with clear bottoms (Greiner Bio-One). Product formation was assessed by monitoring changes in fluorescence, with the excitation wavelength set at 341 nm and emission at 441 nm. The cutoff was 420 nm. PMT gain was set to medium, with six flashes per read. […] Calibration curves of pNA concentration vs absorbance and AMC vs fluorescence were constructed, and initial rate values were divided by the slope of these calibration curves to reveal the rate of product formation over time (Table S2).
(§2) For all assays excluding pH dependence curves, buffer conditions were as follows: 100 mM HEPES, 50 mM KCl, and pH 8.0. For assays carried out under pseudo-first-order conditions, one reaction component was fixed and in excess, while the other was varied. […] For assays involving variation of aa-pNA or aa-AMC, MnCl2 was added to a final concentration of 3 mM.

Experiment [2] has as its target T1, PaPepA. In words: Metal activation of Leu-pNA cleavage (metal varied, Leu-pNA fixed). As to conditions: with 2 mM Leu-pNA, pH 8.0. The protocol:
as §1, §2

The target of experiment [3] is T1, PaPepA. In words: Pre-steady-state stopped-flow kinetics with global fit. Conditions: global fit. The procedure: An Applied Photophysics SX20 stopped-flow spectrofluorimeter was used to perform kinetic measurements under pre-steady-state conditions. The instrument was equipped with a xenon lamp, a 5 μL mixing cell, and a circulating water bath to maintain constant temperature. All reactions were carried out in 100 mM HEPES (pH 8.0) and 50 mM KCl at 25 °C. Enzyme and metal ions were kept in one syringe, while the other substrate (Leu-pNA or Leu-AMC) was kept in the second syringe. The reaction was triggered by rapid mixing of 55 μL from each syringe. Three traces with 10,000 points per trace were collected per experiment.
For absorbance measurements, product formation was monitored by reading the pNA absorbance at 405 nm (5 mm path length). Multiple turnover rates were measured in the presence of saturating concentrations of both metal and Leu-pNA. PaPepA was present at 1 or 10 μM, MnCl2 was present at 3 mM, and Leu-pNA was present at 250 μM. For fluorescence measurements, a path length of 1 mm was used. Reactions were followed by monitoring the appearance of a 7-amino-4-methylcoumarin (AMC) fluorophore following PaPepA-catalyzed breakdown of Leu-AMC. An excitation wavelength of 341 nm was used with a 400 nm cutoff filter for the emission. Slits were 1 nm for excitation and 2 nm for emission.
Experiments under single turnover conditions monitored fluorescence change with a detector voltage of 300 V, 0.1 μM Leu-AMC, 1.5 mM MnCl2, and varying PaPepA (0.5, 1, 2, 4, 8, 16, or 32 μM). Experiments under multiple turnover conditions monitored fluorescence change with a detector voltage of 250 V, 50 μM Leu-AMC, 1.2 μM PaPepA and varying concentrations of MnCl2 (0.2, 0.4, 0.6, 1.2, 2.4, 6, 9, 12, 18, 24, 60, 120, 1200, or 3600 μM).
Calibration curves of known concentrations of AMC were performed at detector voltages of 250 and 300 V. STO and MTO curves were divided by the slope of these calibration curves to convert the change in fluorescence observed to the concentration of AMC produced.
Pre-steady-state data were imported into KinTek Global Explorer and fit to linear or single-exponential equations using the aFit function to obtain standard deviation estimates. A kinetic model with five steps was considered, and rate constants and outputs were fitted according to this model. Initial estimates for rate constants were based on kcat and KM values. The FitSpace Editor was employed to determine confidence intervals for each of the rate constants. More details including model fitted and parameters used are available in the Supporting Information.
Supporting information note 4: Kintek Global Explorer fitting of stopped flow data Both MTO and STO pre-steady-state data were fit according to the mode described in Figure 4A with scaling factors for each fluorescent species (EP and P) to account for differences in AMC fluorescence whilst in complex with PaPepA versus free in solution. Scaling factors were different across STO and MTO experiments as both were carried out using different detector voltages.
The model that best fitted acquired data was as below, where F is metal free enzyme, E1 is PaPepA with one Mn2+ ion, E is PepA with two Mn2+ ions, S is Leu- […]
For fitting, k1 and k-1 ratios were constrained (linked) based KD for Mn2+ binding as measured by ITC (12nM). Initially, k2 and k-2 were allowed to vary without constraints, and values best fitted as well as Fitspace lower and upper boundaries are reported in Table 2. The value for k1 was best fitted as diffusion limited, and therefore was fixed in further fitting cycles. The best fitted value for k-2 was high and unconstrained, and therefore also fixed at 1000 s-1 for further fitting cycles. k3, k-3, k4, and k5 were not constrained. Multiple iterations of fitting were performed, and best fit values recorded. k1, k2, k3, k-3, k4, and k5 were evaluated using FitSpace Explorer to generate confidence intervals for each of these rate constants. […]

Experiment [4] deals with T1, PaPepA. Conditions: 5 % PEG 8000, labelled component varied, other saturating; in 1/s.
Experiment [5] has as its target T1, PaPepA. As to conditions: labelled component varied. An excerpt:
Viscosity effects were studied by using sucrose as a viscogen. Relative viscosities for different concentrations of sucrose were taken from Bazelyansky et al.[27] Concentrations of viscogen were as follows: 14% sucrose, ηrel = 1.5; 24% sucrose, ηrel = 2.2; and 32% sucrose, ηrel = 2.9.
Viscosity effects were fit to the following equation, where kinetic parameter0 and kinetic parameterη are kcat or kcat/KM in the […] of viscogen, respectively, ηrel is the relative viscosity of the solution, and m is the slope. [drawing 4] 4
All measurements were performed in triplicate.

The target of experiment [6] is T1, PaPepA. Kind of experiment: Alcohol dehydrogenase peptide degradation assay (LC-MS). Conditions: MassPREP ADH digest, 100 nM PaPepA, 3 mM MnCl2, overnight. The procedure: A vial of MassPREP ADH digestion standard (Waters) was reconstituted in 200 μL of LC-MS grade water. Reaction mixtures were prepared by combining 25 μL of ADH solution, 3 mM MnCl2, and 100 nM PaPepA (final concentrations) in a total volume of 50 μL buffer (100 mM HEPES pH 8.0, 50 mM KCl). For control reactions, the addition of PaPepA was omitted. Samples and controls were each prepared in triplicate and incubated overnight, and reactions quenched with the addition of […] of 10% TCA. Following the addition of acid, PaPepA was added to control samples to a final concentration of 50 nM (equivalent to a concentration of enzyme in the reaction samples following acid quenching). Samples were concentrated to 20 μL. A 1 μL portion of this was diluted in 100 μL of LC-MS grade water. 10 μL was injected and analyzed on a SCIEX TripleTOF 5600+ mass spectrometer with an Eksigent 425 nanoLC configured in trap elute configuration. Each sample was loaded onto the trap (Waters ACQUITY M-Class symmetry column 180 μm × 20 mm) and washed with 0.05% TFA in water for 5 min at 5 μL/min. The trap was then switched in line with the Waters M-Class HSS1 analytical column, 75 μm × 150 mm, with a flow rate of 300 nL/min. Samples were eluted over 30 min using a linear gradient from 98% A (100% water 0.1% FA) 2% B (80% MeCN, […] 0.1% FA) to 60% A, 40% B linearly over 12 min, rising to 5% A, 95% B, before returning to 98% A to re-equilibrate. Eluate from the column was sprayed directly into the nanospray source of the mass spectrometer. MS data were collected from 400 to 1250 m/z as the survey scan, and under data-dependent acquisition (DDA) setting, the top 20 strongest peptides were selected for MS/MS using CID fragmentation. Peptide mass tolerance was 20 ppm on the MS and 0.1 Da on the MS/MS.
Identification and analysis of ADH peptides were performed using the Skyline open-access software package (version 22.2). Raw data were extracted using msConvert (ProteoWizard) and the data searched using Skyline against the ADH1 sequence from Saccharomyces cerevisiae (UniProt: P00330). The digestion enzyme was set as trypsin, allowing up to three missed cleavages. Searches encompassed peptides between 400 and 1250 m/z with a mass tolerance of 0.3 m/z. Carbamidomethyl was set as a fixed modification for cysteine residues. Data were searched for the protonated 1+, 2+, and 3+ charge states of each peptide.
Peaks were integrated, and areas were used to qualitatively assess differences in peptide abundances across PaPepA-digested samples and controls. Peptides present in control samples but absent in reactions (integrated area <1000) were classified as “digested”.

Read-outs that look alike come from different tables or passages of the source.

T1 sequence (Q02RY8 whole entry): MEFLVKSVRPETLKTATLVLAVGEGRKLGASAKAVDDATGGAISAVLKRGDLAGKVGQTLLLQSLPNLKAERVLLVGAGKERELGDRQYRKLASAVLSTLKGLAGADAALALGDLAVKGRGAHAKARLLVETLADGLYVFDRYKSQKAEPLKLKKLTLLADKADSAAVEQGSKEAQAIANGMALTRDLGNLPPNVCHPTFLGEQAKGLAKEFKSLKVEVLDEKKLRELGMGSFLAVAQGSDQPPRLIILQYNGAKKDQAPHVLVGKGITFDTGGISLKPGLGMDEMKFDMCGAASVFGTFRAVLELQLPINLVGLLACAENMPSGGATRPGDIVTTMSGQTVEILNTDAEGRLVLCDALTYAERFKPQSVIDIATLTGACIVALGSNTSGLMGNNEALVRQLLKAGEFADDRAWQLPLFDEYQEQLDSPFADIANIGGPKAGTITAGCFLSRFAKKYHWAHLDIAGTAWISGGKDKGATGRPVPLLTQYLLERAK

As to `C[C@H](N)C(=O)Nc1ccc([N+](=O)[O-])cc1` [Ala-pNA], at PaPepA [1], the Km was found to be 220 ± 30 µM and the kcat is 0.037 ± 0.001 s^–1.
With `[Co+2]` [Co^2+], at PaPepA [2], the KACT is given as 0.17 ± 0.01 mM, the kcat was 0.137 ± 0.002 s^–1 and the kcat/KACT was determined as 0.80 ± 0.06 s^–1mM^–1.
For the compound `[Fe+2]` [Fe^2+], on PaPepA [2], the KACT is over 10 mM and the kcat is given as 0.012 ± 0.003 s^–1.
For the compound `CCC(C)[C@H](N)C(=O)Nc1ccc([N+](=O)[O-])cc1` (stereo partly shown) [Ile-pNA], at PaPepA [1], the Km stood at 100 ± 30 µM and the kcat was 0.004 ± 0.000 s^–1.
For `Cc1cc(=O)oc2cc(NC(=O)[C@H](N)CC(C)C)ccc12` [Leu-AMC], the “k3, best-fitted value” at PaPepA [3] (E + S = ES, S is Leu-AMC) came to 2.3 ± 0.1 μM^–1 s^–1. Moreover, at PaPepA [3] (E + S = ES, reverse, S is Leu-AMC), the “k-3, best-fitted value” is 47.9 ± 0.6 s^–1. Further, on PaPepA [3] (EP = E + P), the “k5, best-fitted value” is 13.4 ± 0.1 s^–1. For the same compound, on PaPepA [3] (ES = EP), the “k4, best-fitted value” was determined as 6.3 ± 0.1 s^–1.
Turning to `CC(C)C[C@H](N)C(=O)Nc1ccc([N+](=O)[O-])cc1` [Leu-pNA, reference compound], the kcat on PaPepA [4] stood at 0.391 ± 0.008; at PaPepA [5] (H2O (0% PEG-8000), other saturating, in 1/s), 0.335 ± 0.004; at PaPepA [1] it was 0.254 ± 0.005 s^–1. In addition, the “Slope (sucrose) on kcat” value on PaPepA [5] (sucrose as viscogen) is reported as 0.03 ± 0.01. Besides, the Km at PaPepA [1] stood at 160 ± 10 µM.
`NCCCC[C@H](N)C(=O)Nc1ccc([N+](=O)[O-])cc1` [Lys-pNA]: on PaPepA [1], the Michaelis-Menten constant (Km) amounted to 280 ± 40 µM and the kcat was 0.039 ± 0.002 s^–1.
As to `CSCC[C@H](N)C(=O)Nc1ccc([N+](=O)[O-])cc1` [Met-pNA], at PaPepA [1], the Km was determined as 150 ± 20 µM and the kcat came out at 0.084 ± 0.003 s^–1.
For `[Ni+2]` [Ni^2+], on PaPepA [2], the KACT is on record as 2.5 ± 0.4 mM, the kcat was found to be 0.077 ± 0.003 s^–1 and the kcat/KACT was determined as 0.032 ± 0.005 s^–1mM^–1.
Regarding `N[C@@H](Cc1ccccc1)C(=O)Nc1ccc([N+](=O)[O-])cc1` [Phe-pNA], at PaPepA [1], the Km turned out to be 260 ± 50 µM and the kcat amounted to 0.115 ± 0.008 s^–1.
`O=C(Nc1ccc([N+](=O)[O-])cc1)[C@@H]1CCCN1` [Pro-pNA]: the kcat at PaPepA [1] is 0.081 ± 0.003 s^–1. Besides, the Km at PaPepA [1] (read-out: KM) came to 1200 ± 80 µM.
For `CC(C)[C@H](N)C(=O)Nc1ccc([N+](=O)[O-])cc1` [Val-pNA], on PaPepA [1], the Km was 50 ± 40 µM and the kcat was found to be 0.002 ± 0.001 s^–1.
As to “EKDIVGAVLK [tryptic peptide of yeast ADH (MassPREP digestion standard)]”, in the experiment with PaPepA [6], the “Cleaved?” value was “Not digested”.
For “GVIFYESHGK [tryptic peptide of yeast ADH (MassPREP digestion standard)]”, the “Cleaved?” value with PaPepA [6] is listed as “Digested (Peptides present in control samples but absent in reactions (integrated area <1000) were classified as “digested”)”.
“VLGIDGGEGK [tryptic peptide of yeast ADH (MassPREP digestion standard)]”: the “Cleaved?” value with PaPepA [6] is given as “Digested (Peptides present in control samples but absent in reactions (integrated area <1000) were classified as “digested”)”.
